Measurements published in patent US10689391B2, “Isoxazole analogs as FXR agonists and methods of use thereof” (Enanta Pharmaceuticals, Inc., priority 2017, dated 2020).
pEC50: −log10 of the molar value.

Target: T1, human FXR (NR1H4) (Homo sapiens, UniProt Q96RI1)
T1 construct: host or cells: CHO (Chinese hamster ovary) reporter cells
T1 sequence (Q96RI1 1-486): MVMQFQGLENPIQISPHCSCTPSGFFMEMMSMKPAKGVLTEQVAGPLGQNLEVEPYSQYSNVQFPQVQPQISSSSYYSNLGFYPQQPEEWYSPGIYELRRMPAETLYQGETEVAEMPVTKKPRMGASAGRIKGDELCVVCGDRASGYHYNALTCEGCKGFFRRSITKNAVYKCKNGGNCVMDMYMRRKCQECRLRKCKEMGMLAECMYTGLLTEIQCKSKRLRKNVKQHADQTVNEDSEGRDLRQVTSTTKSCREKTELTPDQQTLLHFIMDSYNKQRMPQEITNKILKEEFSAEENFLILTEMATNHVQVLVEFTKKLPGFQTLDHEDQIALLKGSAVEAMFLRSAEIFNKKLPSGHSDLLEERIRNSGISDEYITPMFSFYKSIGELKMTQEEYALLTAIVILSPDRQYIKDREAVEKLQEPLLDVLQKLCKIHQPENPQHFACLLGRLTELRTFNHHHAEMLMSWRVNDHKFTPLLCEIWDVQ
Assay: Human FXR (NR1H4) Assay (Gal4 promoter driven luciferase reporter, Indigo Bioscience kit IB00601); for Efficacy (%): normalized to CDCA set as 100%
Assay type: cell-based
Conditions: for pEC50: CHO reporter cells expressing human NR1H4, luciferase, 22 hours incubation, potency ranges; for Emax: read-out: Efficacy (%)
Source text: Human FXR (NR1H4) Assay Determination of a ligand mediated Gal4 promoter driven transactivation to quantify ligand binding mediated activation of FXR. FXR Reporter Assay kit purchased from Indigo Bioscience (Catalogue number: IB00601) to determine the potency and efficacy of compound developed by Enanta that can induce FXR activation. The principle application of this reporter assay system is to quantify functional activity of human FXR. The assay utilizes non-human mammalian cells, CHO (Chinese hamster ovary) cells engineered to express human NR1H4 protein (referred to as FXR). Reporter cells also incorporate the cDNA encoding beetle luciferase which catalyzes the substrates and yields photon emission. Luminescence intensity of the reaction is quantified using a plate-reading luminometer, Envision. Reporter Cells include the luciferase reporter gene functionally linked to an FXR responsive promoter. Thus, quantifying changes in luciferase expression in the treated reporter cells provides a sensitive surrogate measure of the changes in FXR activity. […] The assay is according to the manufacturer's instructions. […] Retrieve Reporter Cells from −80° C. storage. Perform a rapid thaw of the frozen cells by transferring a 10 ml volume of 37° C. cell recovery medium into the tube of frozen cells. Recap the tube of Reporter Cells and immediately place it in a 37° C. water bath for 5-10 minutes. Retrieve the tube of Reporter Cell Suspension from the water bath. Sanitize the outside surface of the tube with a 70% alcohol swab, and then transfer it into the cell culture hood. Dispense 90 μl of cell suspension into each well of the 96-well Assay Plate. Transfer the plate into 37° C. incubator, allowing the cells adherent to the bottom of the well. Dilute compounds in Dilution Plate (DP), and administrate to cells at Assay Plate (AP). DMSO content of the samples was kept at 0.2%. Cells were incubated for additional 22 hours before luciferase activities were measured. Thirty minutes before intending to quantify FXR activity, remove Detection Substrate and Detection Buffer from the refrigerator and place them in a low-light area so that they may equilibrate to room temperature. Remove the plate's lid and discard all media contents by ejecting it into an appropriate waste container. Gently tap the inverted plate onto a clean absorbent paper towel to remove residual droplets. Cells will remain tightly adhered to well bottoms. Add 100 μl of luciferase detection reagent to each well of the assay plate. Allow the assay plate to rest at room temperature for at least 5 minutes following the addition of LDR. Set the instrument (Envision) to perform a single 5 second “plate shake” prior to reading the first assay well. Read time may be 0.5 second (500 mSec) per well.

SMILES | pEC50 | Emax [%]
CC(C)Oc1cc(C(=O)NS(=O)(=O)C2CC2)cc2sc(O[C@@H]3CO[C@H]4[C@@H]3OC[C@@H]4OCc3c(-c4c(Cl)cccc4Cl)noc3C3CC3)nc12 [Example 3, 2-(((3R,3aR,6S,6aR)-6-((5-cyclopropyl-3-(2,6-dichlorophenyl)isoxazol-4-yl)methoxy)hexahydrofuro[3,2-b]furan-3-yl)oxy)-N-(cyclopropylsulfonyl)-4-isopropoxybenzo[d]thiazole-6-carboxamide] | 6.00 to 6.70 | 33.5
O=C(O)c1ccc2nc(O[C@@H]3CO[C@H]4[C@@H]3OC[C@@H]4OCc3c(-c4c(Cl)cccc4Cl)noc3C3CC3)sc2c1 [Example 4, 2-(((3R,3aR,6S,6aR)-6-((5-cyclopropyl-3-(2,6-dichlorophenyl)isoxazol-4-yl)methoxy)hexahydrofuro[3,2-b]furan-3-yl)oxy)benzo[d]thiazole-6-carboxylic acid] | 6.00 to 6.70 | 40
CC1(S(=O)(=O)NC(=O)c2ccc3nc(O[C@@H]4CO[C@H]5[C@@H]4OC[C@H]5OCc4c(-c5c(Cl)cccc5Cl)noc4C4CC4)sc3c2)CC1 [Example 8, 2-(((3R,3aR,6R,6aR)-6-((5-cyclopropyl-3-(2,6-dichlorophenyl)isoxazol-4-yl)methoxy)hexa hydrofuro[3,2-b]furan-3-yl)oxy)-N-((1-methylcyclopropyl)sulfonyl)benzo-[d]thiazole-6-carboxamide] | 6.00 to 6.70 | 20
O=C(NS(=O)(=O)C1CC1)c1ccc2nc(O[C@@H]3CO[C@H]4[C@@H]3OC[C@H]4OCc3c(-c4c(Cl)cccc4Cl)noc3C3CC3)sc2c1 [Example 9] | 6.00 to 6.70 | 5.5
CC(C)Oc1cc(C(=O)O)cc2sc([C@@]3(O)CO[C@@H]4[C@H](OCc5c(-c6c(Cl)cccc6Cl)noc5C5CC5)CO[C@@H]43)nc12 [Example 17] | < 6.00 | 9
CC(C)Oc1cc(C(=O)O)cc2sc([C@]3(F)CO[C@@H]4[C@H](OCc5c(-c6c(Cl)cccc6Cl)noc5C5CC5)CO[C@@H]43)nc12 [Example 18] | 6.00 to 6.70 | 45
CC(C)Oc1cc(C(=O)O)cc2sc(N[C@@H]3CO[C@H]4[C@@H]3OC[C@H]4OCc3c(-c4c(Cl)cccc4Cl)noc3C3CC3)nc12 [Example 19] | 6.00 to 6.70 | 82.3
CC(C)Oc1cc(C(=O)O)cc2sc(N3CCN4C[C@@H](OCc5c(-c6c(Cl)cccc6Cl)noc5C5CC5)C[C@@H]4C3)nc12 [Example 20, 2-((7S,8aR)-7-((5-cyclopropyl-3-(2,6-dichlorophenyl)isoxazol-4-yl)methoxy)hexahydropyrrolo[1,2-a]pyrazin-2(1H)-yl)-4-isopropoxybenzo[d]thiazole-6-carboxylic acid] | 6.00 to 6.70 | 44
CC(C)Oc1cc(C(=O)O)cc2sc(N3CCN4C[C@H](OCc5c(-c6c(Cl)cccc6Cl)noc5C5CC5)C[C@H]4C3)nc12 [Example 21] | 6.70 to 7.52 | 72
CC(C)Oc1cc(C(=O)O)cc2sc(N3CCN4C[C@H](OCc5c(-c6c(Cl)cccc6Cl)noc5C5CC5)C[C@@H]4C3)nc12 [Example 22, 2-((7R,8aR)-7-((5-cyclopropyl-3-(2,6-dichlorophenyl)isoxazol-4-yl)methoxy)hexahydropyrrolo[1,2-a]pyrazin-2(1H)-yl)-4-isopropoxybenzo[d]thiazole-6-carboxylic acid] | 6.70 to 7.52 | 82
CC(C)Oc1cc(C(=O)NS(=O)(=O)C2(C)CC2)cc2sc(O[C@@H]3CO[C@H]4[C@@H]3OC[C@H]4OCc3c(-c4ccccc4OC(F)(F)F)noc3C3CC3)nc12 [Example 24] | 6.70 to 7.52 | 78
CC(C)Oc1cc(C(=O)NS(=O)(=O)C2CC2)cc2sc(O[C@@H]3CO[C@H]4[C@@H]3OC[C@H]4OCc3c(-c4ccccc4OC(F)(F)F)noc3C3CC3)nc12 [Example 25] | 6.70 to 7.52 | 66
CC(C)Oc1cc(C(=O)O)cc2sc(N3C[C@H]4[C@@H](OCc5c(-c6c(Cl)cccc6Cl)noc5C5CC5)CO[C@H]4C3)nc12 [Example 26] | 6.00 to 6.70 | 7
CC(C)Oc1cc(C(=O)O)cc2sc(N3C[C@H]4C[C@@H](NCc5c(-c6c(Cl)cccc6Cl)noc5C5CC5)C[C@H]4C3)nc12 [Example 28] | 6.00 to 6.70 | 57
CC(C)Oc1cc(C(=O)O)cc2sc(N3CCN4C(=O)[C@@H](OCc5c(-c6c(Cl)cccc6Cl)noc5C5CC5)C[C@@H]4C3)nc12 [Example 29] | < 6.00 | 21
CC(C)Oc1cc(C(=O)O)cc2sc(N3CCN4C(=O)[C@H](OCc5c(-c6c(Cl)cccc6Cl)noc5C5CC5)C[C@H]4C3)nc12 [Example 30] | 6.70 to 7.52 | 70
CC(C)Oc1cc(C(=O)O)cc2sc(N3CCN4C(=O)[C@@H](OCc5c(-c6c(Cl)cccc6Cl)noc5C5CC5)C[C@H]4C3)nc12 [Example 31] | 6.70 to 7.52 | 110

The remaining lines, values ahead:

pEC50 | Emax [%] | SMILES
6.70 to 7.52 | 55 | O=C(O)c1cc(F)c2nc(O[C@@H]3CO[C@H]4[C@@H]3OC[C@H]4OCc3c(-c4c(Cl)cccc4Cl)noc3C3CC3)sc2c1 [Example 5, 2-(((3R,3aR,6R,6aR)-6-((5-cyclopropyl-3-(2,6-dichlorophenyl)isoxazol-4-yl)methoxy)hexahydrofuro[3,2-b]furan-3-yl)oxy)-4-fluorobenzo[d]thiazole-6-carboxylic acid]
6.70 to 7.52 | 56 | O=C(O)c1cc(F)c2nc(O[C@@H]3CO[C@H]4[C@@H]3OC[C@H]4OCc3c(-c4ccccc4OC(F)(F)F)noc3C3CC3)sc2c1 [Example 6]
> 7.52 | 103 | CC(C)Oc1cc(C(=O)NS(=O)(=O)N2CCCC2)cc2sc(O[C@@H]3CO[C@H]4[C@@H]3OC[C@H]4OCc3c(-c4c(Cl)cccc4Cl)noc3C3CC3)nc12 [Example 10]
6.70 to 7.52 | 57 | CC(C)Oc1cc(C(=O)NS(=O)(=O)C2CC2)cc2sc(O[C@@H]3CO[C@H]4[C@@H]3OC[C@H]4OCc3c(-c4c(Cl)cccc4Cl)noc3C3CC3)nc12 [Example 11]
6.70 to 7.52 | 70 | CC(C)Oc1cc(C(=O)NS(=O)(=O)C2(C)CC2)cc2sc(O[C@@H]3CO[C@H]4[C@@H]3OC[C@H]4OCc3c(-c4c(Cl)cccc4Cl)noc3C3CC3)nc12 [Example 12]
> 7.52 | 96.5 | CC(C)Oc1cc(C(=O)NS(=O)(=O)N2CCCCC2)cc2sc(O[C@@H]3CO[C@H]4[C@@H]3OC[C@H]4OCc3c(-c4c(Cl)cccc4Cl)noc3C3CC3)nc12 [Example 13]
6.70 to 7.52 | 67.5 | O=C(O)c1ccc2nc(O[C@@H]3CO[C@H]4[C@@H]3OC[C@H]4OCc3c(-c4c(Cl)cccc4Cl)noc3C3CC3)sc2c1 [Example 14]
6.70 to 7.52 | 85 | O=C(O)c1ccc2nc(O[C@@H]3CO[C@H]4[C@@H]3OC[C@H]4OCc3c(-c4c(Cl)cccc4Cl)noc3C3CC3)ccc2c1 [Example 16]
> 7.52 | 103 | CC(C)Oc1cc(C(=O)O)cc2sc(O[C@@H]3CO[C@H]4[C@@H]3OC[C@H]4OCc3c(-c4ccccc4OC(F)(F)F)noc3C3CC3)nc12 [Example 23]
